Source: US11111245B2, “Derivatives of N-cycloalkyl/heterocycloalkyl-4-(imidazo[1,2-a]pyridine)pyrimidin-2-amine as therapeutic agents” (Aucentra Therapeutics Pty Ltd, priority 2017, dated 2021)

Experiments:
CDK4/D1 = CDK4/D1 (Homo sapiens, UniProt P11802); experiment: ADP Glo Kinase assay CDK4/D1; type: biochemical; conditions: CDK4D1; compound at 10 μM; read-out: residual activity (%) at 10 μM CDK4D1
Procedure, shortened: (§1)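 Compounds tested at 10 concentrations (10 μM to 0.5 nM, 1:3 steps) against CDK4/D1 or CDK6/D3, RB-CTF substrate, Tris pH 7.5 buffer with MgCl2, DTT and BSA.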

CDK9/T1 = CDK9/T1 (Homo sapiens, UniProt P50750); experiment: ADP Glo Kinase assay CDK9/T1; type: biochemical; conditions: CDK9T1; read-out: CDK inhibition, Ki (μM) CDK9T1
Procedure, shortened: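 Luminescent ADP detection measured activity after a 40 min, 37° C ATP-initiated reaction, using RB-CTF for CDK4/D1 and CDK6/D3 and RBER-IRStide for CDK9/T1. Controls lacked or contained kinase. Values: IC50 by four-parameter nonlinear regression, Ki from ATP Km.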

leukemia cell lines = experiment: Resazurin cell viability assay on leukemia cell lines (72 h growth inhibition, GI50); type: cell-based; conditions: Homo sapiens, MV4-11 cells
Procedure, shortened: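 GI50 values from non-linear regression of growth inhibition; read-out was MTT for solid tumour cells, resazurin for leukaemia cells.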

CDK6/D3 = CDK6/D3 (Homo sapiens, UniProt Q00534); experiment: ADP Glo Kinase assay CDK6/D3; type: biochemical; conditions: CDK6D3; compound at 10 μM; read-out: residual activity (%) at 10 μM CDK6D3
Procedure, shortened: as §1

CDKs and other kinases [1] = biological target: T1, CDKs and other kinases (Homo sapiens, UniProt P50613); experiment: Radiometric kinase assay (Eurofins Pharma Discovery or Reaction Biology Corporation Kinase Profiler); type: biochemical; conditions: CDK7H; for Ki: read-out: CDK inhibition, Ki (μM) CDK7H; for remaining activity at 10 µM: compound at 10 μM, read-out: residual activity (%) at 10 μM CDK7H
T1 construct: other: CDK7H; residual activity (%) at 10 μM CDK7H; compound at 10 μM
Procedure, shortened: (§2)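 Other CDKs and further kinases were profiled externally by radiometric assay. In-house ADP Glo assays covered CDK4/D1 and CDK6/D3 (RB-CTF substrate, pH 7.5 Tris buffer with MgCl2, DTT, BSA) and CDK9/T1 (RBER-IRStide substrate), 40 min at 37° C.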

CDKs and other kinases [2] = biological target: T2, CDKs and other kinases (Homo sapiens, UniProt P24941); experiment: as above; type: biochemical; conditions: CDK2A; for remaining activity at 10 µM: compound at 10 μM, read-out: residual activity (%) at 10 μM CDK2A; for Ki: read-out: CDK inhibition, Ki (μM) CDK2A
T2 construct: other: CDK2A; residual activity (%) at 10 μM CDK2A; compound at 10 μM
Procedure, shortened: as §2

CDKs and other kinases [3] = biological target: T3, CDKs and other kinases (Homo sapiens, UniProt P06493); experiment: as above; type: biochemical; conditions: CDK1B; for remaining activity at 10 µM: compound at 10 μM, read-out: residual activity (%) at 10 μM CDK1B; for Ki: read-out: CDK inhibition, Ki (μM) CDK1B
T3 construct: other: CDK1B; residual activity (%) at 10 μM CDK1B; compound at 10 μM
Procedure, shortened: as §2

CDK9/T1, sequence (P50750 whole entry): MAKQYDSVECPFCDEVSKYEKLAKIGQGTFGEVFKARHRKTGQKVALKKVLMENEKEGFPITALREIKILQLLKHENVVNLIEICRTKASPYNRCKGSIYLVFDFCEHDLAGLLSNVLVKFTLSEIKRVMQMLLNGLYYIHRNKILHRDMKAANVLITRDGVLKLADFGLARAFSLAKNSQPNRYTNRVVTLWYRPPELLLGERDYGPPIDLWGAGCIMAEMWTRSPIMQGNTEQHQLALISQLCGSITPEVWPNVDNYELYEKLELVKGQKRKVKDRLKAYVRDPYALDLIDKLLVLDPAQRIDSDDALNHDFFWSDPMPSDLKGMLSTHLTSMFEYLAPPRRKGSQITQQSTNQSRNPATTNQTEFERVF
CDK9/T1, sequence (O60563 whole entry partner): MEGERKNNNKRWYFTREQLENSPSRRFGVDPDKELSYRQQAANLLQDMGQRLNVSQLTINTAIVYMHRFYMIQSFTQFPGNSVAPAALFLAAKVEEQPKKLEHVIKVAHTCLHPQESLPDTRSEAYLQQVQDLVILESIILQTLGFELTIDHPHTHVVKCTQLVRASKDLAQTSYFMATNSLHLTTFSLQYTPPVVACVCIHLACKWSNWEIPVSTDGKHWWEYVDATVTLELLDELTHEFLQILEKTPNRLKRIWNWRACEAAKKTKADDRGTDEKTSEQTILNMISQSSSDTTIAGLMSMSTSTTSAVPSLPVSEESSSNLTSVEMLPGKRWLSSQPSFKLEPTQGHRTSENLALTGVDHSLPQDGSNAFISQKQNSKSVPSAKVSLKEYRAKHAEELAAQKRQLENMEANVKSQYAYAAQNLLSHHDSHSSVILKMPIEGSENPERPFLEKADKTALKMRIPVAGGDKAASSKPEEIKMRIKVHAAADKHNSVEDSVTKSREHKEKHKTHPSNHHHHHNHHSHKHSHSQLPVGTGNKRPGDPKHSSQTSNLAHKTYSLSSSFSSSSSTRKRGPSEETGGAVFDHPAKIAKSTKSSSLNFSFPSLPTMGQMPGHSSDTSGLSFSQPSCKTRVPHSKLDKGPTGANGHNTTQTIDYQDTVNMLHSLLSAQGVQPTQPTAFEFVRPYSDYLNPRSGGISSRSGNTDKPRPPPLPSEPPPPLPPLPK
CDK6/D3, sequence (Q00534 whole entry): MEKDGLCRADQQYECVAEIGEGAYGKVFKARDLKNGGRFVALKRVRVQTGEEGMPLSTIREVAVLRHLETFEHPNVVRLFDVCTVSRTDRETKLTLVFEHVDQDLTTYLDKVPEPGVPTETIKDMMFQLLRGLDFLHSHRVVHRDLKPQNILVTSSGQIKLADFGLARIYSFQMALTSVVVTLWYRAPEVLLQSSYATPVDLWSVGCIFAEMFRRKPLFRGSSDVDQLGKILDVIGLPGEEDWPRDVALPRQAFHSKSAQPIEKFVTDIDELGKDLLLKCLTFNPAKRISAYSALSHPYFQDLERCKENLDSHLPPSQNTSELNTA
CDK6/D3, sequence (P30281 whole entry partner): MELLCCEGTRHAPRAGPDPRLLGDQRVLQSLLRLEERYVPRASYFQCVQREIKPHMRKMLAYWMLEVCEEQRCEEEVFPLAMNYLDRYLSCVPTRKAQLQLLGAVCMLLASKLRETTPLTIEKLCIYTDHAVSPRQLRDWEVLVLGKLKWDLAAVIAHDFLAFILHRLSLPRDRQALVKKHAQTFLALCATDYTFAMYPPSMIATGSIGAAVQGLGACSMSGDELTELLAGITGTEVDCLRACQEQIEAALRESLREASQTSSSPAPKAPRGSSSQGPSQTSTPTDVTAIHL
T1 sequence (P50613 whole entry): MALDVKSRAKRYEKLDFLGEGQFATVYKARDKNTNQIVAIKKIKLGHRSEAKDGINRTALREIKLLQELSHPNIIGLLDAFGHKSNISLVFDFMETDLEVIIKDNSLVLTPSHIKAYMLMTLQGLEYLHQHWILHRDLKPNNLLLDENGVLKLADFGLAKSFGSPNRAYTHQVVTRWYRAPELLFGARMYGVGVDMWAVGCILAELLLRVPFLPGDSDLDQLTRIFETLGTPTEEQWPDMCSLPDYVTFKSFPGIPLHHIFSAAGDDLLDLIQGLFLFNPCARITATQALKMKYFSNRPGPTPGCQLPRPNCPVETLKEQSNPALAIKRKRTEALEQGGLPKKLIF
CDK4/D1, sequence (P11802 whole entry): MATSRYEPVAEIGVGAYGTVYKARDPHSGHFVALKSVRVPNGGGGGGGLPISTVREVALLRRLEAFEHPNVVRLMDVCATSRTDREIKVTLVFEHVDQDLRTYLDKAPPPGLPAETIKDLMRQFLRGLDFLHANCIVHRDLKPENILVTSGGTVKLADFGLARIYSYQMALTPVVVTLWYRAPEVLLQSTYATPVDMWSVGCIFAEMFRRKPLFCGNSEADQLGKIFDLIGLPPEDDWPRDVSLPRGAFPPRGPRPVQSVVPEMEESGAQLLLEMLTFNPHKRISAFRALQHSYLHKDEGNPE
CDK4/D1, sequence (P24385 whole entry partner): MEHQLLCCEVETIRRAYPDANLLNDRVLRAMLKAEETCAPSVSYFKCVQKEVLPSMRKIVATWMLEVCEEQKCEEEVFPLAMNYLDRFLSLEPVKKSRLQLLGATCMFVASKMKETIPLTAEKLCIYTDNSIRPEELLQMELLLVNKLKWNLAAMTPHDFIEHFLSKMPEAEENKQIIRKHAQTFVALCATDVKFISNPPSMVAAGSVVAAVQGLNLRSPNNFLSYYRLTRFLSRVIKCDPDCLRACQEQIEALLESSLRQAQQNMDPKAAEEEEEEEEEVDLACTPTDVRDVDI
T3 sequence (P06493 whole entry): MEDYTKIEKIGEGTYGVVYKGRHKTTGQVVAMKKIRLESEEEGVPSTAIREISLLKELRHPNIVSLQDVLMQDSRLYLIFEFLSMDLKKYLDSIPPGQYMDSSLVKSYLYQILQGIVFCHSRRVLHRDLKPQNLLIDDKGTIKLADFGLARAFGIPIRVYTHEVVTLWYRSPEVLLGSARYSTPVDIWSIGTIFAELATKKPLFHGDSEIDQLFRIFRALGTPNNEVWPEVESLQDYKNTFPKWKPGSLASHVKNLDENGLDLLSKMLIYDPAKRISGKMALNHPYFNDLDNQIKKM

| SMILES | remaining activity at 10 µM (CDK4/D1) | Ki (CDK9/T1) | GI50 (leukemia cell lines) | remaining activity at 10 µM (CDK6/D3) | residual activity at 10 µM (CDKs and other kinases [1]) | remaining activity at 10 µM (CDKs and other kinases [2]) | remaining activity at 10 µM (CDKs and other kinases [3]) | Ki (CDKs and other kinases [1]) | Ki (CDKs and other kinases [2]) | Ki (CDKs and other kinases [3]) | remaining activity at 10 µM (CDKs and other kinases [1]) |
| --- | --- | --- | --- | --- | --- | --- | --- | --- | --- | --- | --- |
| Cc1cnc(N[C@H]2CC[C@@H](N)CC2)nc1-c1cnc2ccc(Nc3cncnc3)cn12 [Compound 93, (1s,4s)-N^1-(5-Methyl-4-(6-(pyrimidin-5-ylamino)imidazo [1,2-a]pyridin-3-yl)pyrimidin-2-yl)cyclohexane-1,4-diamine] | 28% | 0.071 µM | 0.336 ± 0.082 µM | 69% | – | 31% | 35% | – | – | – | 49% |
| Cc1cnc(N[C@H]2CC[C@H](O)CC2)nc1-c1cnc2ccc(Nc3cncnc3)cn12 [Compound 108, (1r,4r)-4-((5-Methyl-4-(6-(pyrimidin-5-ylamino)imidazo [1,2-a]pyridin-3-yl)pyrimidin-2-yl)amino)cyclohexan-1-ol] | 70% | 0.018 µM | > 10 µM | 68% | – | – | – | 4.76 µM | 0.035 µM | 0.16 µM | – |
| N[C@H]1CC[C@H](Nc2ncc(Cl)c(-c3cnc4c(-c5cccnc5)cc(C(F)(F)F)cn34)n2)CC1 [Compound 86, (1r,4r)-N^1-(5-Chloro-4-(8-(pyridin-3-yl)-6-(trifluoromethyl)imidazo[1,2-a]pyridin-3-yl)pyrimidin-2-yl)cyclohexane-1,4-diamine] | 25% | 0.216 µM | 0.086 ± 0.005 µM | 47% | – | – | – | 0.044 µM | 0.25 µM | 2.64 µM | – |

Next, values leading:

| remaining activity at 10 µM (CDK4/D1) | Ki (CDK9/T1) | GI50 (leukemia cell lines) | remaining activity at 10 µM (CDK6/D3) | residual activity at 10 µM (CDKs and other kinases [1]) | remaining activity at 10 µM (CDKs and other kinases [2]) | remaining activity at 10 µM (CDKs and other kinases [3]) | Ki (CDKs and other kinases [1]) | Ki (CDKs and other kinases [2]) | Ki (CDKs and other kinases [3]) | remaining activity at 10 µM (CDKs and other kinases [1]) | SMILES |
| --- | --- | --- | --- | --- | --- | --- | --- | --- | --- | --- | --- |
| 24% | 0.211 µM | 0.229 ± 0.015 µM | 80% | 295% | 44% | 57% | – | – | – | – | Cc1cnc(N[C@H]2CC[C@H](NC3CCN(C)CC3)CC2)nc1-c1cnc2ccc(-c3ccccc3)cn12 [Compound 90, (1r,4r)-N^1-(5-Methyl-4-(6-phenylimidazo[1,2-a]pyridin-3-yl)pyrimidin-2-yl)-N4-(1-methylpiperidin-4-yl) cyclohexane-1,4-diamine] |
| 55% | 0.072 µM | 0.274 ± 0.064 µM | 91% | – | – | – | 2.39 µM | 0.92 µM | 2.68 µM | – | Cc1cnc(N[C@H]2CC[C@H](N)CC2)nc1-c1cnc2ccc(-c3c(C)noc3C)cn12 [Compound 59, (1r,4r)-N^1-(4-(6-(3,5-Dimethylisoxazol-4-yl)imidazo [1,2-a]pyridin-3-yl)-5-methylpyrimidin-2-yl) cyclohexane-1,4-diamine] |
| 69% | 0.17 µM | 0.177 ± 0.005 µM | 86% | – | 70% | 71% | – | – | – | 22% | COc1ccc(-c2ccc3ncc(-c4nc(N[C@H]5CC[C@H](N)CC5)ncc4C)n3c2)cn1 [Compound 58, (1r,4r)-N^1-(4-(6-(6-Methoxypyridin-3-yl)imidazo[1,2-a]pyridin-3-yl)-5-methylpyrimidin-2-yl)cyclohexane-1,4-diamine] |
| 0% | 0.006 µM | < 0.001 µM | 46% | – | – | – | 0.019 µM | 0.023 µM | 0.084 µM | – | N[C@H]1CC[C@H](Nc2ncc(F)c(-c3cnc4ccc(C(F)(F)F)cn34)n2)CC1 [Compound 3, (1r,4r)-N^1-(5-Fluoro-4-(6-(trifluoromethyl)imidazo[1,2-a]pyridin-3-yl)pyrimidin-2-yl)cyclohexane-1,4-diamine] |
| 0% | 0.006 µM | 0.001 µM | 22% | – | 4% | 4% | – | – | – | 6% | N[C@H]1CC[C@H](Nc2ncc(F)c(-c3cnc4ccc(NC(=O)c5ccc(F)cc5)cn34)n2)CC1 [Compound 51, N-(3-(2-(((1r,4r)-4-Aminocyclohexyl)amino)-5-fluoropyrimidin-4-yl)imidazo[1,2-a]pyridin-6-yl)-4-fluorobenzamide] |
